For assay [1], the target named is T1, Cytochrome P450 1A2 (Homo sapiens, UniProt P05177).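 Note: PubChem cytochrome P450 panel assay, CYP1A2 panel member.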
T1 sequence (P05177 whole entry): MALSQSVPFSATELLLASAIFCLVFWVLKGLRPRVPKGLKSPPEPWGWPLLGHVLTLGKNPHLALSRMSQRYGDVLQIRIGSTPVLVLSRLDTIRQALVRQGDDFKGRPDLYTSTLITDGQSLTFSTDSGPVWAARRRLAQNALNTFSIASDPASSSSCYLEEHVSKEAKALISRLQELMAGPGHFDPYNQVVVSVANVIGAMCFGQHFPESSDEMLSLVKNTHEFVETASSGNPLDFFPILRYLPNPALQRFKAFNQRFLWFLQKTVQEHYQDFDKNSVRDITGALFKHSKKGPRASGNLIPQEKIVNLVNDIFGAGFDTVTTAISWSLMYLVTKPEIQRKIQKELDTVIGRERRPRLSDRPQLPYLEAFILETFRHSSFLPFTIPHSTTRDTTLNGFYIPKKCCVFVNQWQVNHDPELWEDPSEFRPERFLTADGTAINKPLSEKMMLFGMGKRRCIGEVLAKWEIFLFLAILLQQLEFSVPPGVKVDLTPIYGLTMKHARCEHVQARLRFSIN

In assay [2] the target is Cytochrome P450 3A4 (Homo sapiens, UniProt P08684).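 Note: CYP3A4 tested as one member of a cytochrome P450 panel screen.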
Chain of Cytochrome P450 3A4 (P08684 whole entry): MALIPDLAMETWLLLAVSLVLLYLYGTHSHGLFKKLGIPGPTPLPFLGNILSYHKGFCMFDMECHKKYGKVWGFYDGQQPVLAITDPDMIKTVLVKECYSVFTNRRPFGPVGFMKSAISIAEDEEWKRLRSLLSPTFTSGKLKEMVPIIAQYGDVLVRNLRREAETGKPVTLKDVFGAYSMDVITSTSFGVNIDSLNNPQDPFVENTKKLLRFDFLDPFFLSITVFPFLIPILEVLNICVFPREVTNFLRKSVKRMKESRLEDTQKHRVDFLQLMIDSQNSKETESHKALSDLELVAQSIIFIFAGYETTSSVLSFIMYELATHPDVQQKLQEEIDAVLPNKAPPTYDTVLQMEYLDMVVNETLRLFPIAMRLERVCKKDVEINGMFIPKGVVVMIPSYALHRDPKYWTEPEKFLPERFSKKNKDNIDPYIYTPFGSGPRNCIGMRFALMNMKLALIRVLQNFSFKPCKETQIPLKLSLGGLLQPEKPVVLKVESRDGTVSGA
In assay [3] the target is T2, Corticotropin-releasing factor receptor 2/Corticotropin-releasing factor-binding protein (Homo sapiens, UniProt P24387+Q13324).
T2 sequence (Q13324 whole entry): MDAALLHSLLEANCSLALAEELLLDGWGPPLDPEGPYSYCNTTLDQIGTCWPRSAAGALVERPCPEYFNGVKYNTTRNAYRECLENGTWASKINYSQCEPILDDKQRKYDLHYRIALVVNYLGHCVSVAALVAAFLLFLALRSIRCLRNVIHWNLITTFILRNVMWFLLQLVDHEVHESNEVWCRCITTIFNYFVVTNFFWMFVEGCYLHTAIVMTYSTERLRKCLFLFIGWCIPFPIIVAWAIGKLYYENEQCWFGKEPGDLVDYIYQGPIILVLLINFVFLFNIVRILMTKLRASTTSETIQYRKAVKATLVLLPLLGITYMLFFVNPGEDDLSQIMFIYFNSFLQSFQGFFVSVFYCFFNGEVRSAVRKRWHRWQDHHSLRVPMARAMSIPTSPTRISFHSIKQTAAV
T2 sequence (P24387 whole entry): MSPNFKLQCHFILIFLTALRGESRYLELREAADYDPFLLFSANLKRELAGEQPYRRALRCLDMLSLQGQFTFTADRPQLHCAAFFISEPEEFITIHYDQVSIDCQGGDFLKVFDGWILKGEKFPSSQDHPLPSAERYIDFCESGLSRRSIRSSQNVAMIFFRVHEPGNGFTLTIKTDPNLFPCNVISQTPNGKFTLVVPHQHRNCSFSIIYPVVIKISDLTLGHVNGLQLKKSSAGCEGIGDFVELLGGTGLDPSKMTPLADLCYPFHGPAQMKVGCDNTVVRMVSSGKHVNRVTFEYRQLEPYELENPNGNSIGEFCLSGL
The assay can be described thus: activators of CRF receptor 2 with binding protein – uHTS hits, confirmation (AID 602473). In kind it is functional. The following applies: read-out: EC50_Mean.

A short description of assay [4]: cytotoxicity toward NIH3T3 fibroblasts, dose response, counter-screen, cell-based, ATP luminescence, mouse fibroblasts (AID 2010).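 Note: cells exposed to compound for about 90 hours before reading.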 In kind it is functional.
A short description of assay [5]: inhibitors of intracellular T. cruzi replication, confirmation, NIH3T3 host cells, beta-gal luminescence (AID 2044).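 Note: intracellular parasites grown in NIH/3T3 mouse fibroblasts as host cells; luminescent beta-galactosidase reporter signal from transgenic T. cruzi replicating inside host cells; inhibitors lower the luminescence signal.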 In kind it is functional, cell-based.
Assay [6] relates to Streptococcus sp. 'group A'. The experiment in a line: growth inhibition of control SK(-) GAS strain, dose response, counter-screen for streptokinase expression inhibitor project, luminescence, kanamycin, BacTiterGlo, confirmation (AID 1900). In kind it is functional, organism-based. A general note: The purpose of a counterscreen is to sort out artefacts and off-target activity.

Assay [7] relates to Streptococcus. The experiment in a line: Group A Streptococcus viability loss, dose response, counter-screen for streptokinase expression inhibitor project, luminescence, BacTiterGlo (AID 1915).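 Note: potency for reduction of bacterial viability or growth.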 The class given is functional, organism-based.
Assay [8] has as its target T3, Zinc finger protein mex-5 (Caenorhabditis elegans, UniProt Q9XUB2).
T3 sequence (Q9XUB2 whole entry): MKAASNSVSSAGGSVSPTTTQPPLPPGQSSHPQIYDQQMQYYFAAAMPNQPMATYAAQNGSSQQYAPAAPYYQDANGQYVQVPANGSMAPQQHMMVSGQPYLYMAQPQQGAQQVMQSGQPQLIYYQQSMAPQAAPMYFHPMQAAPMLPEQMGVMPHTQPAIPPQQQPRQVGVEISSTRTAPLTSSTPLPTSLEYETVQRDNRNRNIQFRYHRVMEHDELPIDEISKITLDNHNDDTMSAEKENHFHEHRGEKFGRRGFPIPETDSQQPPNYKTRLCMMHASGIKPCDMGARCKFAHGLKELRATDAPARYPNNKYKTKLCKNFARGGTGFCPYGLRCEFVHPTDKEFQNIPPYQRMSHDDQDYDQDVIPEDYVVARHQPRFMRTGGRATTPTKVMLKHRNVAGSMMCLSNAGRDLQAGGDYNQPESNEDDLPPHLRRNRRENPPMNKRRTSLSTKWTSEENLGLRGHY
The experiment in a line: MEX-5/TCR-2 RNA interaction inhibitors, dose response, biochemical, C. elegans, fluorescence polarization (AID 1960). On the technique in general: Fluorescence polarisation rises when a labelled molecule tumbles more slowly, as on binding a larger partner.

For assay [9], the target named is T4, RNA-binding protein pos-1 (Caenorhabditis elegans, UniProt G5EF15).
T4 sequence (G5EF15 whole entry): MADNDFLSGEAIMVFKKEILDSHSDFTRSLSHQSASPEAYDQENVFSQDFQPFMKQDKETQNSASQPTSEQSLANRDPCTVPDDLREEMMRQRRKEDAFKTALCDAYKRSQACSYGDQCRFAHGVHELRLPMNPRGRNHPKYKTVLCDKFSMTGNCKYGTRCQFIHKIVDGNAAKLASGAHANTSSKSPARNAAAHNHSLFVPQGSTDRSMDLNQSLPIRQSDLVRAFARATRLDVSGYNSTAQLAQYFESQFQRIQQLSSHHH
The assay can be described thus: inhibitors of POS-1/mex-3 RNA binding, dose response, biochemical, fluorescence polarization (AID 1964).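 Note: purified POS-1 fused to maltose binding protein made in E. coli; potency of compounds blocking POS-1 binding to fluorescent RNA.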

The test system of assay [10] is INS1. The assay can be described thus: beta cell apoptosis inhibitors, cytokine rescue, dose response, luminescence, retest (AID 449756).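 Note: cell death triggered by IL-1 beta plus TNF-alpha plus IFN-gamma mixture; protective hits raise ATP signal compared with cytokine alone wells.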 The following applies: Rattus norvegicus, INS1. The class given is functional, cell-based.
Assay [11] in a line: Luminescence Cell-Based Dose Response HTS to Identify Activators of Luciferase Translation or Activity in H4 […] Cells. [Related pubchem assays: 1829 (Project Summary), 1814 (Primary HTS)]. The class given is functional.

Broadly, the AC50 is the midpoint of the concentration-response curve, whichever way the signal moves.

The structures appear in SMILES notation. Calls of active or inactive are those of the source. Cut-off read from the data, not from the text of the source, for most assays here: actives have a measured EC50 and inactives only a lower limit.

For the molecule `COc1cc(OC)cc(C(=O)Nn2cc(C(=O)N3CCN(C)CC3)c3ccccc3c2=O)c1`, the AC50 is 10 µM (inconclusive) in assay [1] and 28.2 µM (inconclusive) in assay [2].

For `O=C(CCn1c2c(c3ccccc31)CCCC2)NNC(=O)c1ccccc1C(=O)O`, the EC50 in assay [3] was 7.66 µM (active). In the case of `CN1CCCC2(CCN(C(=O)c3cnccn3)CC2)C1`, the AC50 in assay [2] is 25.1 µM (inconclusive). As to `COc1ccccc1CN1C[C@@H]2C[C@@H](c3ccc(C)c(C)c3)N3CCC[C@@]23C1=O`, the results for the EC50 in assay [4] and in assay [5] were > 30 µM (not active) and 2.26 µM (active), respectively. Consider `COc1ccc(C2=NOC(CN=C(N)S)C2)cc1` (centres undefined), for which the figures for the EC50 in assay [6] and in assay [7] were 3.77 µM (active) and 10.9 µM (active), respectively. Take `Cc1ccc(/C(O)=C/c2nc3cc(C)ccc3oc2=O)cc1`: the results for the EC50 in assay [8] and in [9] were 1.64 µM (inconclusive) and 7.64 µM (inconclusive), respectively.

Turning to `CC(C)OCCCn1/c(=N/C(=O)c2cccs2)c(C#N)cc2c(=O)n3ccccc3nc21`, the EC50 in assay [8] and in assay [9] was > 300 µM (not active) in each case. With `CC(C)(C)C(=O)Nc1ccnc(-c2cccnc2)n1`, in assay [2], the AC50 is 2.51 µM (inconclusive).

For the molecule `CCC(CO)Oc1cc(NCc2ccc(C(C)(C)C)cc2)c2ncn(C(C)C)c2c1` (centres undefined), in [10], the AC50 was 3.07 µM (active).

For `C=C(C)CSc1nc2sc3c(c2c(=O)n1-c1ccccc1)CCN(C)C3`, the EC50 was > 30 µM (not active) in [4] and 0.197 µM (active) in [5].

As to `Cc1ccc(-c2cnc(NC(=O)CCC(=O)N(C)Cc3ccccc3)n2C)cc1`, the half-maximal activity concentration (AC50) in [10] is 21.3 µM (active). The same measure, in the same setting: to `CCN(CC(=O)Nc1ccc(NC(C)=O)cc1)C(=O)CCCOc1ccc(C(C)(C)C)cc1` belongs 23.7 µM (active). As to `Cc1ccc(OC[C@H](O)[C@H](C)NC(C)C)c2c1CCC2`, the AC50 in [2] is 31.6 µM (inconclusive). `CCN1C(=O)[C@H]2[C@@H](c3ccc(-c4cccc(Cl)c4)cc3)N[C@@](Cc3ccccc3)(C(=O)OC)[C@H]2C1=O`: the EC50 in assay [4] is 14.6 µM (active); in [5], 2.06 µM (active). On to `O=C(CN1CCOCC1)N/N=C/c1c(O)ccc2ccccc12`, for which the half-maximal activity concentration (AC50) in [10] is 4.87 µM (active). Consider `COc1ccc(Nc2ncnc3c2oc2ccccc23)cc1`, for which the EC50 in assay [11] was 7.34 µM (active). Regarding `O=C(NCc1cccnc1)c1sc2cc(Cl)ccc2c1Cl`, the AC50 in assay [2] is 0.891 µM (inconclusive). Regarding `COCCNC(=O)CSc1nc2ccc(N3CCOCC3)cc2c(=O)n1Cc1ccc(OC)cc1`, in [1], the AC50 was 15.8 µM (inconclusive). With `CC(C)Cc1ccc(CN2CCC(n3nccc3NC(=O)C3CCCC3)CC2)cc1`, the EC50 is > 60 µM (not active) in assay [4] and 0.313 µM (active) in [5]. With `COc1ccc(Cl)c(Cn2c(NCc3ccco3)nc3c2c(=O)n(C)c(=O)n3C)c1`, the half-maximal activity concentration (AC50) in assay [10] is 3.27 µM (active). Regarding `Cc1ccc(S(=O)(=O)c2ccccc2)cc1S`, the EC50 in assay [4] was > 30 µM (not active); in assay [5], 0.983 µM (active).

Take `CCOC(=O)Cc1ccc(NCc2ccc(Cl)cc2)cc1`: the results for the EC50 in assay [4] and in assay [5] were > 30 µM (not active) and 1.47 µM (active), respectively. Turning to `CCN(CC)CCN1c2ccccc2Sc2ccc3ccccc3c21`, the concentration at half-maximal activity (AC50) in [10] is 14 µM (active).

Take `COc1ccc(-c2c[n+](-c3ccc(Cl)cc3)c3n2CCCCC3)cc1`: in [10], the AC50 was 2.16 µM (active). Moreover, the EC50 in assay [4] was > 60 µM (not active); in [5], 0.781 µM (active).

For `COCCn1c(SCC(=O)NC(=O)NCc2ccccc2)nc2ccccc21`, the EC50 in assay [4] was > 60 µM (not active); in assay [5], 1.14 µM (active). Regarding `COc1ccc(N(C)S(=O)(=O)c2ccc3c(c2)CCC(=O)N3)cc1`, the results for the AC50 in [1] and in assay [2] were 0.01 µM (inconclusive) and 3.55 µM (inconclusive), respectively. For `CC(C)[C@H](Sc1nc(N)nc2[nH]cnc12)C(=O)O`, in [1], the AC50 is 0.316 µM (inconclusive). `CCc1noc(C)c1C(=O)N1CCCC(C(=O)c2cc(F)ccc2OC)C1` (centres undefined): the EC50 in [4] is > 60 µM (not active); in assay [5], 9.23 µM (active). Turning to `COc1cccc2c(=O)n(CC(=O)N3CCc4ccccc43)ccc12`, in assay [3], the EC50 was > 53 µM (inactive). Take `CC(CN1CCN(C)CC1)OC(=O)c1ccc(Cl)cc1` (centres undefined): the EC50 is > 60 µM (not active) in assay [4] and 0.606 µM (active) in [5]. For the molecule `COc1ccc(-c2nc3cnc(N4CCN(C)CC4)nc3n(C)c2=O)cc1`, the AC50 in assay [1] was 25.1 µM (inconclusive). In the case of `O=C(CCN1CCN(Cc2ccccc2)CC1)Nc1cccc(Cl)c1`, the EC50 in assay [4] is > 60 µM (not active); in assay [5], 0.965 µM (active).

In the case of `O=C(CN1CCC(C(O)(c2ccccc2)c2ccccc2)CC1)Nc1cc(Cl)ccc1Cl`, the results for the EC50 in [4] and in [5] were 9.41 µM (active) and 1.38 µM (active), respectively.

As to `CC(=O)N1CCN(C(=O)CC2OC(=O)c3ccccc32)CC1` (centres undefined), in [1], the AC50 was 22.4 µM (inconclusive). Regarding `N#Cc1ccc(CN2CC[C@@]3(CCCNC3)C2)cc1`, the AC50 in assay [1] was 25.1 µM (inconclusive); in assay [2] it was 31.6 µM (inconclusive). Turning to `O=C(Nc1ccc(F)cc1F)N1CCCCC1c1cccnc1` (centres undefined), the figures for the EC50 in [4] and in assay [5] were > 60 µM (not active) and 0.654 µM (active), respectively.

As to `CCOc1cc(/C=N/NC(=O)c2cc(-c3cccc(OC)c3)nc3ccccc23)ccc1O`, in assay [10], the AC50 is 8.15 µM (active). Regarding `O=C(C1CCCN(Cc2cccc(Cl)c2)C1)N1CCCCC1` (centres undefined), the results for the EC50 in assay [4] and in [5] were > 30 µM (not active) and 0.167 µM (active), respectively.

Consider `O=C(O)c1ccccc1C(=O)Nc1cc2c(cc1Br)-c1ccccc1C2=O`, for which the half-maximal activity concentration (AC50) in [1] is 0.631 µM (inconclusive). Take `O=C(Nc1cccc(-c2cn3cccnc3n2)c1)c1ccco1`: the EC50 in assay [4] is > 30 µM (not active); in [5], 0.941 µM (active). Besides, in assay [2], the AC50 was 25.1 µM (inconclusive). Consider `COc1ccc(CCNC[C@H](O)c2ccc(O)cc2)cc1OC` [DENOPAMINE], for which, in assay [2], the AC50 was 25.1 µM (inconclusive).
